Results published in patent US6958351B2, “NMDA NR2B antagonists for treatment” (Pfizer Inc, priority 2000, dated 2005).

With Oc1ccc2c(c1)OCC(N1CCC(O)(c3ccc(F)cc3)CC1)[C@H]2O (stereo in doubt) the melting point was 159 to 160 °C.
